Each structure is given as a SMILES string. “Also recorded” adds a separate entry of the source.

The subject of one test is FXR-null mice. The test is described as follows: chronic PO fexaramine in HFD fed FXR-null mice. The class given is in vivo. Particulars: 100 mg/kg 5 week with HFD. How it is done: Data represent the mean±SD. Statistical analysis was performed with the Student's t test. *p<0.05, **p<0.01.
Therefore, glucose tolerance tests (GTTs) and insulin tolerance tests (ITTs) were performed to determine if glucose homeostasis was improved in fexaramine-treated DIO mice.

A further test has as its system TGR5 null mice. The test is described as follows: chronic PO fexaramine in HFD-fed TGR5-null mice. The format is in vivo. The note with it: 100 mg/kg/day PO 5 weeks. How it is done: HFD-fed TGR5-null mice were treated with vehicle or fexaramine (100 mg/kg os daily for 5 weeks with HFD, n=10). (A) Ileal FXR target gene expressions (B) Serum BA levels (C) Fasting glucose levels (D) Glucose tolerance test (E) Core body temperature (F) Oxygen consumption rate (G) Carbon dioxide production (H) Gene expression in BAT (I) Body weight curve (J) Body composition by MRI (K) Insulin Tolerance Test (L) Hepatic gene expression (M) Hepatic TG levels (N) and Gene expression in soleus of TGR5 knockout mice with and without fexaramine treatment. Data represent the mean±SD. Statistical analysis was performed with the Student's t test. *p<0.05, **p<0.01.
To address this possibility, HFD-fed TGR5 null mice were chronically treated with Fex (100 mg/kg/day PO for 5 weeks). […] In particular, the anti-lipogenic effects of Fex in the liver appear to require TGR5 activation, as key hepatic lipogenic genes and liver triglyceride content were not affected by Fex treatment (FIGS. 11L, 11M).

Another test deals with DIO mice. The test is described as follows: hyperinsulinemic-euglycemic clamp in DIO mice. The class given is in vivo. As for the experimental part: FIGS. 15I-15K are a line graph and two bar graphs showing the effect of fexaramine treatment on body weight, insulin-stimulated GDR, and fasting insulin levels. Mice were fed HFD for 14 weeks, and then administered daily oral injections of vehicle or fexaramine (100 mg/kg) for 3 weeks with HFD. The mice treated with fexaramine were initially heavier (by 2-3 grams). Three weeks after treatment, a clamp study was performed on the mice. Data represent the mean±STD. Statistical analysis was performed with the Student's t test (*p<0.05, **p<0.01).

Another test concerns ApcMin/+ mice. The test is described as follows: ApcMin/+ colon cancer mouse model. The class given is in vivo. How it is done: The farnesoid X receptor (FXR) is a bile acid activated nuclear receptor widely expressed through the body. The ability of the intestinal-specific FXR ligand fexaramine to inhibit the progression of colon cancer in mice with a heterozygote mutation for the Apc gene (ApcMin/+ mice on a C57B6 background obtained from Jackson Laboratories) was determined.
5 week old ApcMin/+ mice (13-15 males per group receiving a standard diet, a model for colorectal and intestinal cancer) were treated with vehicle (corn oil) or fexaramine (FEX, 100 mg/kg in corn oil) by oral gavage, three times a week for 23 weeks. Mice body weight and food-intake were measured daily. At the end of the treatment regimen, surviving animals were sacrificed by cervical dislocation and the entire intestinal tract was immediately removed and washed with cold phosphate-buffered saline.
At the completion of the treatment, the colons were removed, flushed with PBS, fixed as “Swiss-rolls” in 4% paraformaldehyde at 4° C. overnight, and paraffin-embedded. Sections (5 μm) were cut stepwise (200 μm) through the complete block and stained with H&E. Tumor counts were performed blinded by a trained pathologist. To determine proliferation rates, mice were injected i.p. with 100 mg/kg of BrdU 2.5 hours prior to sacrifice and paraffin sections stained using a BrdU-in situ detection kit. The extent of apoptosis was determined by TUNEL assay using the ApoAlert DNA fragmentation assay kit. BrdU- and TUNEL-positive cells were counted by an investigator blinded to the genotype. For immunohistochemistry, antigen retrieval was performed (Vector Lab H3300) and then RTU Vectastain Universal Elite ABC Kit and NovaRED or VIP substrate (all from Vector Lab) were used, following the manufacturer's instructions.
Statistical analysis were performed in collaboration with the Cancer Prevention-Biostatistics department at the University of California at San Diego Cancer Center. This is part of an ongoing collaboration and has previously been applied to the APC^Min model of colorectal cancer as well as to several other cancer models including prostate and breast cancer. The volume of polyps was calculated considering them as hemispheres (½×[…] π r^3). All other evaluations were performed in the distal tract of the small intestine because ApcMin/+ mice develop the majority of tumors in the small intestine.

A further test deals with human L cells. The test is described as follows: oxygen consumption rate of intestinal L cells (Seahorse analyzer). The class given is cell-based. Particulars: fexaramine 1 μM for 24 hours. How it is done: FIG. 41 is a graph showing the effects of modulating FXR activity on the oxidative metabolism of intestinal L cells. L cells were treated with the FXR agonist fexaramine, the FXR antagonist Guggulsterone, or a combination of both, prior to measurement of their oxygen consumption rate (OCR) in a Seahorse analyzer.
To examine the effects of FXR in the secretion of GLP-1, the metabolic changes induced in human L cells was measured by treatment with the FXR agonist, fexaramine and an FXR antagonist guggulsterone. Treatment of L cells with fexaramine (1 μM for 24 hours) lead to an increase in the oxygen consumption rate (OCR), consistent with increased mitochondrial activity and consequently, an increased energetic state (FIG. 41). The reverse effect was seen after treatment with the FXR antagonist, guggulsterone, with lower OCR after drug treatment.

For test [1], the system named is C57BL/6J mice with intragastric ethanol feeding. The test is described as follows: alcoholic liver disease, Tsukamoto-French mouse model. The class given is in vivo. Particulars: ethanol feeding 3 weeks; 100 mg/kg/day oral gavage. How it is done:
FIGS. 44A-44C are a (A) digital image of histology images of the liver and (B) and (C) bar graphs showing that administration of fexaramine can protect the liver from alcoholic liver disease, for example by decreasing fat in the liver, liver enzyme ALT and triglycerides (TG). C57BL/6J mice, fed an isocaloric diet or ethanol through continuous intragastric feeding for 3 weeks, were co-administered Fexaramine (100 mg/kg/day oral gavage) or vehicle. (A) Histological liver sections from ethanol fed mice after vehicle or fexaramine treatment. (B) Bar graph of serum alanine aminotransferase (ALT) levels in vehicle and fexaramine treated mice after 3 weeks of an ethanol diet (C) Liver triglyceride levels in vehicle and fexaramine treated mice after 3 weeks of an ethanol or isocaloric (control) diet.
The Tsukamoto-French mouse model, which involves continuous intragastric feeding of isocaloric diet or ethanol for 3 weeks, was used. C57BL/6J mice were co-administered vehicle or fexaramine by oral gavage (100 mg/kg/day). Mice were sacrificed after treatment and conjugated and unconjugated bile acid levels measured in serum and liver by liquid chromatography/mass spectrometry.

In the case of `COC(=O)/C=C/c1cccc(N(Cc2ccc(-c3ccc(N(C)C)cc3)cc2)C(=O)C2CCCCC2)c1` [Fexaramine, fexaramine], the “Fex-induced changes in gene expression and metabolic homeostasis” value in the test on FXR-null mice is “abrogated”. In the test on TGR5 null mice, the “FXR target genes in the ileum incl. FGF15” value is listed as “induced”; the “core body temperature and metabolic rate” value was “somewhat blunted increases”; the “fasting glucose levels and glucose tolerance” value is “moderate improvements”; the “hepatic lipogenic genes and liver triglyceride content” value is on record as “not affected”. Besides, in the test with TGR5 null mice, the “serum BA levels” value is “lowered” and the “weight gain or insulin sensitivity” value is “no significant changes”. Moreover, the “insulin-mediated suppression of HGP” value in the test with DIO mice (versus control DIO mice) was “marked increase”. The “basal HGP, GDR, IS-GDR, FFA suppression and fasting insulin levels” value with DIO mice (weight-matched cohorts) is on record as “No differences”. Also, the “colon cancer-induced cachexia (weight loss)” value in the test on ApcMin/+ mice (100 mg/kg oral gavage three times a week) is recorded as “resistant to colon cancer-induced cachexia”. In the test on ApcMin/+ mice (after 23 weeks), the “serum total cholesterol and triglyceride levels” value is recorded as “reduces circulating triglycerides; also recorded: reduced”; the “tumor size in duodenum, jejunum, ileum and throughout the intestine” value was “dramatic reduction in tumor size”; the “tumors in colon sections” value is given as “No tumors were observed”. The “reduction in total tumor burden versus vehicle” value in the test on ApcMin/+ mice (after 23 weeks, p 0.04) stood at 20%. In the test with ApcMin/+ mice (after 23 weeks, p 0.08), the “reduction in tumor burden in the ileum” value worked out at 25% and the “reduction in tumor burden in the jejunum” value was 11.75%. For the same compound, the “tumor burden in the duodenum” value in the test with ApcMin/+ mice (after 23 weeks, p 0.73) is reported as “no change in tumor burden”. Besides, the “survival at 25 weeks” value in the test on ApcMin/+ mice (vehicle 20%) is recorded as 80%. Further, the body weight change result in the test with ApcMin/+ mice (vehicle-treated mice lose ˜10%) is reported as “maintain their weight”. Further, in the test with human L cells, the “oxygen consumption rate (OCR)” value is “increase”. In test [1], the hepatic steatosis entry is listed as “decreasing hepatic steatosis” and the “serum levels of alanine aminotransferase (ALT)” value is recorded as “decreased”.

These data come from patent publication US20190084939A1, “ANALOGS OF FEXARAMINE AND METHODS OF MAKING AND USING” (Salk Institute for Biological Studies, priority 2014, published 2019).
